Laboratory results: paper PMC8149832, “A comparative study of synthetic winged peptides for absolute protein quantification” (Scientific Reports, 2021)
Ends that are not written are not given here.

Each substance was assayed against T1, Trypsin (Sus scrofa, UniProt P00761) (assay: Trypsin digestion efficiency / kinetics of signature peptide formation). Settings: trypsin 1:20 w/w, 37 °C, AmBic/SDC buffer with 5% ACN reconstitution; 0.5-24 h; SRM peak area; Figs. 4, S3, S4.
T1 construct: purchased Promega V5280
Assay type: biochemical
Procedure: HSA concentration in the pooled serum sample diluted twofold with ultrapure water was determined using BCG albumin assay kit on the 96-well plate format (cat. #MAK124-1KT, Sigma-Aldrich). The seven-point calibration series was prepared using HSA standard (5 to 50 mg/mL) in ultrapure water. The absorption spectrophotometry was measured at 620 nm wavelength. The pooled serum sample (10 µL), diluted 2000-fold using 50 mM AmBic with 5 mg/mL SDC (AmBic/SDC buffer) to HSA concentration of approx. 500 nM and transferred into a clean microcentrifuge tube. After adding SIL protein or peptide internal standard (10 µL), the sample was reduced (adding 1 µL of 200 mM DTT stock solution, 95 °C, 10 min), cooled down to ambient temperature, and cysteine residues were alkylated (adding 1 µL of 400 mM IAAstock solution, ambient temperature, 30 min in the dark). Trypsin was added to the sample in a 1:20 ratio (w/w enzyme to total protein content), and samples were incubated (37 °C, 16 h) in microcentrifuge tubes sealed with a paraffin film. The enzymatic proteolysis was quenched at different time points (0.5, 2, 4, 8, 16, and 24 h; n = 3) to optimize the incubation time. The proteolysis was quenched by adding 200 µL of 2% FA in water (pH < 3), and tryptic peptides were desalted using a mixed-mode SPE cartridge in a 96-well plate format (Oasis PRIME HLB, Waters, Milford, MA). Samples were loaded onto the SPE cartridge, washed (300 µL water with 2% FA, pH < 3), eluted (50% ACN; 2% FA in water, pH < 3), and the extract was dried in a vacuum concentrator centrifuge (Savant SPD121 P SpeedVac, Thermo Fisher). Samples were dissolved (10 µL) in 5% ACN with 0.1% FA in water before UHPLC-SRM analysis. […]
The enzymatic digestion efficiency severely affects the quantitative performance of a protein assay[10],[11]. […] Overnight trypsin digestion is routinely used for reproducible proteolytic yields as the peptide's stability and formation efficiency may vary[11]. Maximal trypsinization yields of some signature peptides are reached within two hours[10],[16], while other peptides require longer digestion time[30]. We optimized the trypsin digestion duration to ensure reproducible signature peptide yields needed for a quantitative protein assay. We studied the signature peptide formation from light HSA protein and each version of SIL-Ex peptides after 0.5, 2, 4, 8, 16, and 24 h of incubation. SRM peak areas of light and heavy signature peptides and determined HSA protein concentrations (nM) were plotted against incubation time (h), comparing the efficiency of light HSA proteolysis with SIL-Ex peptides (Figs. 4, S3 and S4). The formation of HSA signature peptides LVNE, SLHT, DDNP, YLYE, and QTAL was compared for SIL-TCT, SIL-ExC5, SIL-ExC3N3, and SIL-ExC5N5 peptides (Fig. 4). Besides, the formation of HSA signature peptides DLGE, LCTV, LVTD, TYET, and FQNA was compared for SIL-TCT and SIL-ExC5 peptides only (Fig. S4).

T1 sequence (P00761 9-231): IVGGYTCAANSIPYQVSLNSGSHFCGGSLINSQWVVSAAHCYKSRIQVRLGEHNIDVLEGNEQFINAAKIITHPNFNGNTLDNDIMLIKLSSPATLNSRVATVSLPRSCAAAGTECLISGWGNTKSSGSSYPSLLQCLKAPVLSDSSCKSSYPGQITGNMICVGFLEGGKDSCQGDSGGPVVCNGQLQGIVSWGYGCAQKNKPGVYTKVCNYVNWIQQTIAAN

| formation of signature peptide by trypsin digestion, rate or yield (in words) | Substance |
| --- | --- |
| lower | TFLKKYLYEIARRHPYF (also: stable isotope label, residues not given here) [SIL-ExC5N5 YLYEIAR, SIL signature peptide extended with five amino acids at both C- and N-termini] |
| rapidly formed signature peptide DDNP | DDNPNLPRLVRPE |
| rapidly formed signature peptide DDNP | DDNPNLPRSAnYG [SIL-TCT DDNPNLPR] |
| lower | RQIKKQTALVELVKHKPKA [SIL signature peptide extended with five amino acids at both C- and N-termini] |

| Substance | formation of signature peptide by trypsin digestion, rate or yield (in words) |
| --- | --- |
| FLQHKDDNPNLPRLVRPE [SIL signature peptide extended with five amino acids at both C- and N-termini] | mimicking the slow digestion kinetics of light HSA protein |
| LQHKDDNPNLPRLVR [SIL signature peptide extended with three amino acids at both C- and N-termini] | mimicking the slow digestion kinetics of light HSA protein |

Same assay, conditions: trypsin 1:20 w/w, 37 °C, AmBic/SDC buffer; quenched at 0.5, 2, 4, 8, 16, 24 h, n = 3; SRM peak area; Fig. S4

| Substance | time to plateau of signature peptide formed from C-terminal extended SIL peptide (in words) |
| --- | --- |
| DLGEENFKALVLI | within the initial two hours |
| LC*TVATLRETYGE | within the initial two hours |

Continued, values first:

| time to plateau of signature peptide formed from C-terminal extended SIL peptide (in words) | Substance |
| --- | --- |
| within the initial two hours | LC*TVATLRSAnYG [SIL-TCT LCTVATLR] |
| within the initial two hours | DLGEENFKSAnYG [SIL-TCT DLGEENFK] |
